Test results reported in patent US7524679B2, “Methods for culturing human lung mast cells and uses thereof” (Philadelphia, Health and Education Corporation, priority 2001, dated 2009).
Ends that are not written are not given here.

Assays:
[1] = test system: human lung mast cells; assay: Histamine release assay in cultured human lung mast cells; format: cell-based; conditions: agent alone on cultured human lung mast cells
Method: Release of histamine in response to various stimuli was also examined.
Mast cells (10-50×10^3/tube) in PAGCM were preincubated at 37° C. then challenged with buffer or anti-FcεRI in doubling dilutions. In experiments examining the effects of beta-agonist and purinergic agonists, agents were added to cells at 37° C. for 15 minutes prior to FcεRI-mediated challenge. Twenty minutes following challenge, cells were rapidly pelleted and supernatants removed for histamine analysis. Histamine release was expressed as the net histamine released divided by the total histamine content ×100%. The total cellular histamine content was determined following cell lysis with 2% perchloric acid. […] Histamine measurements were performed using the automated spectrofluorometric method of Technicon (Tarrytown, N.Y.). […] All assays were run in duplicates.

[2] = test system: human lung mast cells; assay: Proliferation assay using 3H-thymidine uptake; format: cell-based; conditions: for effect on proliferation when added to medium containing stem cell factor and interleukin-4: added on top of stem cell factor and interleukin-4
Method: Uptake of ^3H-thymidine was also monitored as a measure of survival and proliferation of human lung mast cell cultures of the present invention in the presence of different cytokine growth factors. In these experiments, ^3H-thymidine was added to human lung mast cell aliquots from three individuals at 5 through 7 weeks of culture. […] In the absence of stem cell factor, cells died within 3-5 days. Medium with stem cell factor alone produced a 60% increase in uptake. Medium to which stem cell factor and interleukin-4 were added produced a greater than 4-fold increase in proliferation versus stem cell factor alone.
At days 35-49, when cultures contained >95-99% mast cells, 2×10^4 mast cells in 50 μl culture medium were placed in triplicate in 96 well flat-bottomed plates and ^3H-thymidine (0.5 μCi/50 μl/well) added. After four days, cells were harvested on a glass fiber filter, washed ×3, and radioactive uptake was evaluated by a beta counter. Since the cultures contained virtually homogeneous populations, the counts reflected mast cell proliferation and not that of cellular contaminants. The results were expressed as the percent increase in radioactivity over mast cell cultured in medium alone.

[3] = test system: freshly isolated human lung mast cells; conditions: cited from earlier work
[4] = test system: cord-blood precursor-derived mast cells; conditions: cited from earlier work
[5] = test system: human lung mast cell cultures; assay: Beta-receptor responsiveness: inhibition of histamine release; format: cell-based; conditions: cultured human lung mast cells, agents added 15 minutes prior to FcεRI-mediated challenge
Method: Beta-receptor responsiveness of human lung mast cell cultures of the present invention were also examined using the prototype agonist, isoproterenol, as well as with the long-acting beta agonist, salmeterol.
Mast cells (10-50×10^3/tube) in PAGCM were preincubated at 37° C. then challenged with buffer or anti-FcεRI in doubling dilutions. In experiments examining the effects of beta-agonist and purinergic agonists, agents were added to cells at 37° C. for 15 minutes prior to FcεRI-mediated challenge. Twenty minutes following challenge, cells were rapidly pelleted and supernatants removed for histamine analysis. Histamine release was expressed as the net histamine released divided by the total histamine content ×100%. The total cellular histamine content was determined following cell lysis with 2% perchloric acid. Spontaneous histamine release was always <2% of cellular histamine and generally <1%. Histamine measurements were performed using the automated spectrofluorometric method of Technicon (Tarrytown, N.Y.). Variations between replicates were consistently <5%. All assays were run in duplicates.

[6] = test system: mast cells from CD34 positive precursor stem cells; conditions: added to precursor-derived mast cell culture system; cited from earlier work

Nc1ncnc2c1ncn2[C@@H]1O[C@H](COP(=O)(O)OP(=O)(O)OP(=O)(O)O)[C@@H](O)[C@H]1O [ATP]
histamine release, in words [1]: neither ATP nor UTP alone triggered appreciable histamine release

interferon-y: cytokine added to culture medium containing stem cell factor and interleukin-4
effect on proliferation when added to medium containing stem cell factor and interleukin-4 [2]: marked reduction in proliferation

Nc1ncnc2c1ncn2[C@@H]1O[C@H](CO)[C@@H](O)[C@H]1O [Adenosine, adenosine]
effect on anti-IgE-induced histamine release [3]: enhancement of anti-IgE-induced release
effect on IgE-mediated histamine release [4]: inhibits IgE-mediated histamine release

CNc1ccc2oc(C[C@H]3O[C@@]4(CC[C@H]3C)O[C@H]([C@H](C)C(=O)c3ccc[nH]3)[C@H](C)C[C@H]4C)nc2c1C(=O)O [A23187]
histamine release, in words [1]: in similar fashion to freshly isolated human lung mast cells

interleukin-9: cytokine growth factor
effect on proliferation when added to medium containing stem cell factor and interleukin-4 [2]: even greater enhancement in proliferation

CC(C)NCC(O)c1ccc(O)c(O)c1 (stereo not shown) [isoproterenol]
IC50 [5]: 0.09 nM

stem cell factor: cytokine growth factor added to the culture medium
increase in 3H-thymidine uptake ([2]; medium with stem cell factor alone, over medium alone): 60%

substance P (RPKPQQFFGLM; ends and bridges not checked; UniProt P20366 58-68, looked up)
histamine release, in words [1]: failed to provoke histamine release

O=c1ccn([C@@H]2O[C@H](COP(=O)(O)OP(=O)(O)OP(=O)(O)O)[C@@H](O)[C@H]2O)c(=O)[nH]1 [UTP, uridine 5′ triphosphate]
histamine release, in words [1]: neither ATP nor UTP alone triggered appreciable histamine release

OCc1cc(C(O)CNCCCCCCOCCCCc2ccccc2)ccc1O (stereo not shown) [salmeterol]
IC50 [5]: 0.1 nM

B1: interleukin-4: cytokine growth factor; the cytokine that most defines allergic immunity (protein, UniProt P05112 25-153, looked up)
Interleukin-4: HKCDITLQEIIKTLNSLTEQKTLCTELTVTDIFAASKNTTEKETFCRAATVLRQFYSHHEKDTRCLGATAQQFHRHKQLIRFLKRLDRNLWGLAGLNSCPVKEANQSTLENFLERLKTIMREKYSKCSS
programmed cell death (apoptosis) [6]: induces programmed cell death (apoptosis)
proliferation (3H-thymidine uptake) ([2]; interleukin-4 added in the absence of stem cell factor, 5 through 7 weeks of culture): no proliferation in excess of that seen in culture medium alone
